ChEMBL document CHEMBL1201862, “PubChem BioAssay data set” (2004)
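The compound was tested at five concentrations on cells cultured in 96-well plates, with a 48-hour exposure period. GI50 = concentration required for 50% inhibition of growth.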 Activity calls are given as the source filed them. Cut-off read from the data, not from the text of the source: active = GI50 up to about 1.1 µM and inactive = higher.

How the values were obtained:
Test in all cases: NCI tumour cell line growth inhibition, 48 h
[1] = tested on: RPMI-8226
[2] = tested on: BT-549
[3] = tested on: OVCAR-3
[4] = tested on: PC-3
[5] = tested on: RXF 393
[6] = tested on: UO-31
[7] = tested on: SNB-19
[8] = tested on: MDA-MB-435
[9] = tested on: HCC 2998
[10] = tested on: HOP-92
[11] = tested on: NCI/ADR-RES
[12] = tested on: SF-539
[13] = tested on: KM12
[14] = tested on: U-251
[15] = tested on: SN12C
[16] = tested on: CCRF-CEM
[17] = tested on: SK-MEL-28
[18] = tested on: K562
[19] = tested on: DU-145
[20] = tested on: HOP-62
[21] = tested on: HCT-15
[22] = tested on: OVCAR-8
[23] = tested on: SK-MEL-5
[24] = tested on: ACHN
[25] = tested on: EKVX
[26] = tested on: Malme-3M
[27] = tested on: SR
[28] = tested on: 786-0
[29] = tested on: HL-60
[30] = tested on: SK-OV-3
[31] = tested on: COLO 205
[32] = tested on: M14
[33] = tested on: NCI-H460
[34] = tested on: HT-29
[35] = tested on: HCT-116
[36] = tested on: LOX IMVI
[37] = tested on: MCF7
[38] = tested on: IGROV-1
[39] = tested on: SK-MEL-2
[40] = tested on: SF-295
[41] = tested on: CAKI-1
[42] = tested on: NCI-H522
[43] = tested on: OVCAR-4
[44] = tested on: NCI-H226
[45] = tested on: TK-10
[46] = tested on: A498
[47] = tested on: Hs-578T
[48] = tested on: MDA-N
[49] = tested on: T47D
[50] = tested on: UACC-62
[51] = tested on: MOLT-4
[52] = tested on: SF-268
[53] = tested on: UACC-257
[54] = tested on: SNB-75
[55] = tested on: A549
[56] = tested on: SW-620
[57] = tested on: MDA-MB-231

For `Cc1cc(-c2nc3cccc(F)c3s2)ccc1N`, the GI50 [1] was > 52.6 µM (inactive), the GI50 [2] was 46.2 µM (inactive) and the GI50 [3] was > 66.5 µM (inactive). For the same compound, the GI50 [4] was > 65.8 µM (inactive), the GI50 [5] was > 71 µM (inactive) and the GI50 [6] was > 45 µM (inactive). For the same compound, the GI50 [7] was > 80.2 µM (inactive), the GI50 [8] was > 61.4 µM (inactive) and the GI50 [9] was > 37.1 µM (inactive). For the same compound, the GI50 [10] was > 50.8 µM (inactive), the GI50 [11] was > 62.2 µM (inactive) and the GI50 [12] was > 100 µM (inactive). The GI50 [13] was > 57.1 µM (inactive), the GI50 [14] was > 68.2 µM (inactive) and the GI50 [15] was > 45.8 µM (inactive). The GI50 [16] was 8.04 µM (inactive), the GI50 [17] was > 100 µM (inactive) and the GI50 [18] was > 56.6 µM (inactive). For the same compound, the GI50 [19] was > 73.5 µM (inactive), the GI50 [20] was > 100 µM (inactive) and the GI50 [21] was greater than 67.6 µM. For the same compound, the GI50 [22] was > 80.9 µM (inactive), the GI50 [23] was > 100 µM (inactive) and the GI50 [24] was > 74.1 µM (inactive). The GI50 [25] was 49.5 µM (inactive), the GI50 [26] was > 100 µM (inactive) and the GI50 [27] was 2.52 µM (inactive). For the same compound, the GI50 [28] was > 56.2 µM (inactive), the GI50 [29] was 13.3 µM (inactive) and the GI50 [30] was > 100 µM (inactive). The GI50 [31] was > 100 µM (inactive), the GI50 [32] was > 68.2 µM (inactive) and the GI50 [33] was > 20.4 µM (inactive). The GI50 [34] was > 57.3 µM (inactive), the GI50 [35] was > 52.7 µM (inactive) and the GI50 [36] was > 63.2 µM (inactive). For the same compound, the GI50 [37] was 0.0132 µM (active), the GI50 [38] was 1.93 µM (inactive) and the GI50 [39] was > 85.3 µM (inactive). For the same compound, the GI50 [40] was > 65 µM (inactive), the GI50 [41] was > 59.6 µM (inactive) and the GI50 [42] was > 100 µM (inactive). For the same compound, the GI50 [43] was > 27.2 µM (inactive), the GI50 [44] was 22.1 µM (inactive) and the GI50 [45] was 0.48 µM (active). For the same compound, the GI50 [46] was > 58.6 µM (inactive), the GI50 [47] was > 54.2 µM (inactive) and the GI50 [48] was > 60.3 µM (inactive). For the same compound, the GI50 [49] was 0.033 µM (active), the GI50 [50] was > 96.4 µM (inactive) and the GI50 [51] was 42.9 µM (inactive). The GI50 [52] was > 35 µM (inactive), the GI50 [53] was > 68.1 µM (inactive) and the GI50 [54] was > 51.4 µM (inactive). For the same compound, the GI50 [55] was > 52 µM (inactive), the GI50 [56] was > 87.9 µM (inactive) and the GI50 [57] was 98.9 µM (inactive).
